Results from PMC4844176 (Xenobiotica; the fate of foreign compounds in biological …, 2015).
Where “and” joins values, the source holds several entries; their conditions need not be identical. Identical values can stand only once.

Legend:
UGT1A4 = target: T1, UGT1A4 (Homo sapiens, UniProt P22310); experiment: Inhibition by aprepitant of UGT1A4; type: in vitro ADME; conditions: UGT1A4 enzyme, probe imipramine
T1 sequence (P22310 29-534): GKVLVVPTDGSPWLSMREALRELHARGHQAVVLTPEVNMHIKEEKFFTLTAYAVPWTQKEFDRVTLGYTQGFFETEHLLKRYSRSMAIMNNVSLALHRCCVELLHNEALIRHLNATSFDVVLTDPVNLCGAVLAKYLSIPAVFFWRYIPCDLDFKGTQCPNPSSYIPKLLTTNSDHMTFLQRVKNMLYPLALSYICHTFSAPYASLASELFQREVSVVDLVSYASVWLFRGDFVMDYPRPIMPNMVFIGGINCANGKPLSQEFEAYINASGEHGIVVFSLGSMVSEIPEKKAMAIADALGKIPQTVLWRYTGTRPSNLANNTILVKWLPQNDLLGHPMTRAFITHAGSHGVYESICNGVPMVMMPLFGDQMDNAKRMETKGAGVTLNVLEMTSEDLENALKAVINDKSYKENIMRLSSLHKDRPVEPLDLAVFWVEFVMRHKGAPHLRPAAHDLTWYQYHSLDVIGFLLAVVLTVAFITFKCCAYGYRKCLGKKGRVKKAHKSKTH

UGT2B7 [1] = target: T2, UGT2B7 (Homo sapiens, UniProt P16662); experiment: biochemical
T2 sequence (P16662 24-529): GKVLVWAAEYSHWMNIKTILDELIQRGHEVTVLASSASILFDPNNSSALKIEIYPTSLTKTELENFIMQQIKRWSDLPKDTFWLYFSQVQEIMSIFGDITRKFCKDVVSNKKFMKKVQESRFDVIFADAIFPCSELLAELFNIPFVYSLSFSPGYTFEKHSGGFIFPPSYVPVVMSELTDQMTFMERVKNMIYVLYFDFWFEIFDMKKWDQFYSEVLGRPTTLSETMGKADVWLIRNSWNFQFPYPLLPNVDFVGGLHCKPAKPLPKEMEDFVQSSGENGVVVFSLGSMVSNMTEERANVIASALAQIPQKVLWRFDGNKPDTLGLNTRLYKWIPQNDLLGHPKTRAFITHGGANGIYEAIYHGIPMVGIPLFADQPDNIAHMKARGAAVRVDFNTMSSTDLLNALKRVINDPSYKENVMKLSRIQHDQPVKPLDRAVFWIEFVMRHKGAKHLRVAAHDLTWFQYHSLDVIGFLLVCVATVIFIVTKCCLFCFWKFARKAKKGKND

UGT2B7 [2] = target: T2, UGT2B7; experiment: Screening for aprepitant glucuronidation, UGT2B7 Supersomes; type: in vitro ADME; conditions: UGT2B7, 5 and 250 µM aprepitant
UGT1A9 = target: T3, UGT1A9 (Homo sapiens, UniProt O60656); experiment: Screening for aprepitant glucuronidation, UGT1A9 Supersomes; type: in vitro ADME; conditions: UGT1A9, 5 and 250 µM aprepitant
T3 sequence (O60656 26-530): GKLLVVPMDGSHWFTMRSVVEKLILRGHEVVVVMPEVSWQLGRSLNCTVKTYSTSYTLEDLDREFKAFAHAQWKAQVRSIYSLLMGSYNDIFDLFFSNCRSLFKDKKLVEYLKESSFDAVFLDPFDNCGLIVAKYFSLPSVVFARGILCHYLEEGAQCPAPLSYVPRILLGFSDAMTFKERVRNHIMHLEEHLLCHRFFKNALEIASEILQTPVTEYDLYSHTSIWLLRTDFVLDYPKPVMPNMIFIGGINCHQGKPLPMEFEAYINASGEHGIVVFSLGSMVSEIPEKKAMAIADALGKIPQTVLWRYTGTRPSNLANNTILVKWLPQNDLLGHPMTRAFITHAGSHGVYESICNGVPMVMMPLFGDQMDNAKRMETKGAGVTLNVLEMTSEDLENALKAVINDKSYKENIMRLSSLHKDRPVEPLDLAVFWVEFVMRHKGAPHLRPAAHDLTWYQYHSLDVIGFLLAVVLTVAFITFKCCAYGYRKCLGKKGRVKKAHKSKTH

UGT2B17 = target: T4, UGT2B17 (Homo sapiens, UniProt O75795); experiment: Inhibition by aprepitant of UGT2B17; type: in vitro ADME; conditions: UGT2B17 enzyme, pH 7.5, probe 4-MU
T4 sequence (O75795 24-530): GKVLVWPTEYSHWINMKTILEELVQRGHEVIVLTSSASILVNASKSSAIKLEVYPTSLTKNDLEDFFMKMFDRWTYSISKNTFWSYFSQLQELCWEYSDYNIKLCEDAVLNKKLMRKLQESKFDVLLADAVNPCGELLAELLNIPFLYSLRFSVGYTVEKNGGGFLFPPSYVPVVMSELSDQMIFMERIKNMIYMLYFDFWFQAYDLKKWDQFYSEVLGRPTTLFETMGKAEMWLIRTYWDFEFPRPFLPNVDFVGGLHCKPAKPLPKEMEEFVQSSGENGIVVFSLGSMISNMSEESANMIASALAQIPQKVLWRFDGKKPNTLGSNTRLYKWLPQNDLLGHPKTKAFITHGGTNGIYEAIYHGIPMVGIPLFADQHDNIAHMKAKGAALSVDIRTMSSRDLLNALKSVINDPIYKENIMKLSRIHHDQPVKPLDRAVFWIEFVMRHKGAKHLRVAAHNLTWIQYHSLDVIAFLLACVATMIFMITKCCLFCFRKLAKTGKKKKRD

UGT1A10 = target: T5, UGT1A10 (Homo sapiens, UniProt Q9HAW8); experiment: Screening for aprepitant glucuronidation, UGT1A10 Supersomes; type: in vitro ADME; conditions: UGT1A10, 5 and 250 µM aprepitant
T5 sequence (Q9HAW8 26-530): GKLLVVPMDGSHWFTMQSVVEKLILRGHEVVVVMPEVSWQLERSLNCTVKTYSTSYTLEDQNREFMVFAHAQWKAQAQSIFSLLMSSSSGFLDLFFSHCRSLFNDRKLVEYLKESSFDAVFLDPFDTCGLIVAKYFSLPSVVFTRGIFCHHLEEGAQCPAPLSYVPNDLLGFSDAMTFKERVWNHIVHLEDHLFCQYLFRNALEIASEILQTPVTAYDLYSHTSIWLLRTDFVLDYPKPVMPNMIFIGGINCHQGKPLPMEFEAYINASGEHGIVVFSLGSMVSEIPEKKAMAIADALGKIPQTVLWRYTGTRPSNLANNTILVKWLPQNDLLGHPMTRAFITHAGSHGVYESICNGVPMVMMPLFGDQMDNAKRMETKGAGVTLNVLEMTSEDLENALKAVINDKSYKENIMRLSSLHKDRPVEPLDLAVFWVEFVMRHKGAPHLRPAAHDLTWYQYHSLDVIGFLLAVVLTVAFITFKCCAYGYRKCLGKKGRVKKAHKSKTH

inhibition at 60 min, 10 µM (UGT1A4): 18% | Ki (UGT2B7 [1]): ~10 µM and 7.4 µM and 16.3 µM and 6.7 µM | AP-G formation (UGT2B7 [2]): not detected | AP-G formation (UGT1A9): not detected | inhibition at 10 µM (UGT2B17): 10% | AP-G formation (UGT1A10): not detected
SMILES: C[C@@H](O[C@H]1OCCN(Cc2n[nH]c(=O)[nH]2)[C@H]1c1ccc(F)cc1)c1cc(C(F)(F)F)cc(C(F)(F)F)c1 [aprepitant, Aprepitant]
